Data published in patent publication US20030224446A1, “Method of predicting cytokine response to tissue injury” (priority 2001, published 2003).
Entries after “also recorded” stand apart in the source; their conditions may differ.

Assays:
[1] = tested on: hippocampal dentate granule cells; test: Hematoxylin and eosin staining of hippocampus 24 h after TMT; format: in vivo, mice
Procedure: (§1) Food and water were available ad libitum.
(§2) Based upon previous studies with TMT exposure (Bruccoleri et al., 1998, 1999), a minimum of six mice per group were examined for morphological changes in the hippocampus 24 h following injection. Animals were lightly anesthetized with CO2 and decapitated and brains were removed from the cranium, bisected in the midsagittal plane, and immersion-fixed in 4% paragormaldehyde/0.1 M phosphate-buffered saline (PBS; pH 7.2) overnight at room temperature. Eight-micron paraffin-embedded sections were stained by routine hematoxylin and eosin (H&E) to visualize tissue cellularity. Astrocytes were identified by immunohistochemistry using polyclonal glial fibrillary acidic protein (GFAP) antibodies (Dako Corp., Carpinteria, Calif.). Briefly, rehydrated sections were treated with 3% H2O2, subjected to heat-induced epitope retrieval (HIER) using a decloaking chamber (Biocare Medical, Walnut Creek, Calif.), and incubated with nonimmune goat serum (1.5:100 dilution in 1% BSA/PBS) prior to incubation with rabbit anti-rat GFAP (1:2000 in 1:1 solution of 1% BSA and 1% powered milk in PBS). Sections were incubated with a secondary IgG antibody followed by ABC (avidin-biotin complex) reagent (Vectastain Elite, Vector Laboratories, Burlingame, Calif.) and detected by 3,3′-diaminobenzidine tetrahydrochloride (DAB) substrate (Sigma-Aldrich Research, St. Louis, Mo.). Microglia cells were identified by lectin binding (Bandeiraea Simplicifolia BS-4, 1:10; Sigma Chemical Co.; St. Louis, Mo.) by the method of Streit and Kreutzberg (1987) using HIER. Sites containing microglia bound peroxidase-lectin conjugates were visualized by DAB-H2O2 substrate containing CO2 ions.

[2] = tested on: astrocytes (GFAP immunoreactivity); test: GFAP immunohistochemistry of astrocytes in hippocampus 24 h after TMT; format: in vivo, mice
Procedure: as §1, §2

microglia = test: Lectin histochemistry for microglia in hippocampus 24 h after TMT; format: in vivo; settings: 24 h post-TMT, wild-type, APOE knockout and APOE4 mice
Procedure: as §1
as §2, with “Microglia cells were identified by lectin binding (Bandeiraea Simplicifolia BS-4, 1:10; Sigma Chemical Co.; St. Louis, Mo.) by the method of Streit and Kreutzberg (1987) using HIER. Sites containing microglia bound peroxidase-lectin conjugates were visualized by DAB-H2O2 substrate containing CO2 ions.” left out

[3] = tested on: ICAM-1, iNOS, A20, Mac-1, EB22/5 and GFAP mRNA; test: RNase protection assay, host-response gene probe set, hippocampus; format: in vivo, mice; settings: 24 h; for mRNA levels for Mac-1, A20, and iNOS: any group of mice
Procedure: as §1
(§3) Based upon earlier studies with TMT exposure (Bruccoleri et al., 1998, 1999), Rnase protection assays were conducted at 24-h post-TMT. Multiprobe sets were used for simultaneous detection of mRNAs as previously described (Hobbs, 1993; Bruccoleri et al., 1999). The first set, provided by Dr. Iain Campbell (Scripps Research Institute, San Diego, Calif.), contained probes for intercellular adhesion molecule-1 (ICAM-1), inducible nitric oxide synthase (iNOS), an anti-apoptotic TNFα-inducible early response gene (A20), macrophase-1 antigen (Mac-1), a murine acute-phase response gene homologous to the α-1-antichymotrypsin gene (EB22/5), and GFAP as previously described (Campbell et al., 1994). The second set was purchased from Pharmingen (San Diego, Calif.) and contained probes for tumor necrosis factor-β (TNFβ) and -α (TNFα), interleukin-1α (IL-1α), macrophage inflammatory protein-1α (MIP-1α), and transforming growth factor-β1 (TGF-β1). Each probe set contained probes for L32 and GAPDH. A minimum of 4 animals per group was used in each experiment. Individual fragments were separated by 5% acrylamide/8 M urea sequencing gel electrophoresis and visualized by autoradiography (Hyperfilm-MP film; Amersham, Buckinghamshire, U.K.). Radioactivity in each fragment was visualized by phosphorimager (Molecular Dynamics, Sunnyvale, Calif.) and relative volume determined using Imagequant (Molecular Dynamics) and normalized relative to the corresponding L32 volume.
(§4) Subsequent independent group mean comparisons between each saline-injected genotype or between TMT and saline-injected mice, within each genotype, were conducted using individual one-way ANOVAs for each gene transcript. A statistical significance level was set at p<0.05.

[4] = tested on: TNFβ, TNFα, IL-1α, MIP-1α and TGF-β1 mRNA; test: RNase protection assay, cytokine probe set, hippocampus; format: in vivo, mice; settings: for increase of MEP-1α mRNA levels: vs saline
Procedure: as §1, §3, §4

[5] = tested on: TNFβ, TNFα, IL-1α, MIP-1α and TGF-β1 mRNA; test: RNase protection assay, cytokine probe set, cortex; format: in vivo, mice; settings: 24 h
Procedure: as §1, §3, §4
Given the genotype-specific effects in the hippocampus of 8-month-old mice following TMT, additional brain regions were examined. In the cortex, TMT exposure elevated mRNA levels for TNFα and TGF-β1 in the wild-type mice with no elevation seen in the APOE knockout or APOE4 mice (FIG. 7). MIP-1α mRNA levels in both wild-type and APOE4 mice were elevated by TMT with no elevation in APOE knockout mice (FIG. 7).

[6] = tested on: TNFβ, TNFα, IL-1α, MIP-1α and TGF-β1 mRNA; test: RNase protection assay, cytokine probe set, cerebellum; format: in vivo; settings: 8-month-old mice, 24 h
Procedure: as §1
as §3, with “Individual fragments were separated by 5% acrylamide/8 M urea sequencing gel electrophoresis and visualized by autoradiography (Hyperfilm-MP film; Amersham, Buckinghamshire, U.K.).” left out, “volume. […]” for “volume.”

[7] = tested on: wild-type, APOE knockout and APOE4 mice; test: Systemic toxicity (tremor, seizures, survival) after a single i.p. dose of TMT
[8] = 21-day-old wild-type and APOE knockout mice
[9] = 8-month-old APOE knockout mice, hippocampus, 24 h
[10] = 8-month-old, all animals, hippocampus, 24 h

## [CH3][Sn]([CH3])([CH3])[OH] [TMT, trimethyltin hydroxide]
[1]; TMT-exposed wild-type, APOE knockout and APOE4 mice, 2 mg/kg ip, 24 h
  neuronal necrosis in dentate granule cells (FIG. 1): Severe neuronal necrosis
[1]; wild-type mice, 24 h after TMT
  neuronal cell death in the hippocampus (dentate granule cells): neuronal cell death was evident
  neurons of the pyramidal cell layer: no indication of neuronal cell death
[2]; 24 h after TMT 2.0 mg/kg ip, compared with saline
  astrocyte morphology (FIG. 2): thick cell bodies and processes characteristic of astrocyte reactivity
[2]; APOE knockout and APOE4 mice, 24 h after TMT
  GFAP immunoreactivity in astrocytes: slight increase in GFAP immunoreactivity
[2]; wild-type mice, 24 h after TMT
  GFAP immunostaining: little change
microglia
  reactive/activated microglia by lectin histochemistry: did not detect reactive/activated microglia
[3]; 8-month-old APOE knockout and APOE4 mice
  EB22 mRNA levels: elevation
[3]; 8-month-old wild-type mice
  EB22 mRNA levels: No elevation
[3]; 8-month-old, all groups of mice
  GFAP mRNA levels: elevation
[3]; 8-month-old
  mRNA levels for Mac-1, A20, and iNOS: not altered
[3]; 21-day-old APOE4 mice
  EB22 mRNA levels: no elevation
[3]; [8]
  EB22 mRNA levels: significant (p<0.05) elevation
  GFAP mRNA levels: significantly elevated
[3]; 21-day-old, all mice, vs saline
  ICAM-1 mRNA levels: slight but significant elevation
[3]; 21-day-old
  mRNA levels for Mac-1, A20, and iNOS: not altered
[4]; 8-month-old APOE4 mice, hippocampus, 24 h
  increase of MEP-1α mRNA levels: 3 fold
[4]; 8-month-old APOE knockout mice
  elevation in MIP-1α mRNA compared to the response in wild-type mice: less elevation
[4]; [9]
  TNFα mRNA level: distinct lack of elevation; also recorded: No elevation
  increase of MEP-1α mRNA levels: 1.3 fold
[4]; 8-month-old wild-type and APOE4 mice, hippocampus, 24 h
  TNFα mRNA levels: elevated
[4]; 8-month-old wild-type mice, hippocampus, 24 h
  increase of MEP-1α mRNA levels: 3.5 fold
[4]; [10]
  MIP-1α mRNA levels relative to saline-injected mice: significant (p<0.05) elevations
  mRNA levels for TNFβ, IL-1α, or TGF-β1: No significant elevations
[4]; 21-day-old APOE knockout and APOE4 mice, hippocampus, 24 h
  IL-1α mRNA levels: elevated
[4]; 21-day-old wild-type and APOE knockout mice, hippocampus, 24 h
  TNFα and TGF-β1 mRNA levels: significantly elevated
[4]; 21-day-old, all mice, hippocampus, 24 h
  MIP-1α mRNA levels: elevations
[4]; APOE knockout mice (discussion)
  induction of TNFα, IL-1α, and MIP-1α by TMT: lack of an induction
[4]; APOE knockout mice or those containing the E4 allele, following TMT (discussion)
  induction of TGF-β1: lack of an induction
[5]; 8-month-old APOE knockout mice
  MIP-1α mRNA levels: no elevation
[5]; 8-month-old APOE knockout or APOE4 mice
  mRNA levels for TNFα and TGF-β1: no elevation
[5]; 8-month-old wild-type and APOE4 mice
  MIP-1α mRNA levels: elevated
[5]; 8-month-old wild-type mice
  mRNA levels for TNFα and TGF-β1: elevated
[6]
  mRNA levels for TNFβ, TNFα, IL-1α, MIP-1α, and TGF-β1: no effect
[7]; APOE4 mice, 8 months of age, compared to APOE knockout and wild-type
  decrease in survival rate: ~40%
[7]; APOE4 mice, 21 days of age, 2.0 mg/kg i.p.
  decrease in survival rate: 20%
[7]; APOE knockout mice, 21 days of age, 2.0 mg/kg i.p.
  decrease in survival rate: 10%
[7]; any of the mice exposed to TMT
  aggressiveness or seizures: No signs of aggressiveness or seizures
